Among the data in patent publication US8680159B2, “Bradykinin 1 receptor modulating compounds” (Gruenenthal GmbH, priority 2010, dated 2014) are inhibition values, retold here.

The target in one experiment is T1, human B1R receptor (CHO K1 cells stably transfected with the human B1R gene) (Homo sapiens, UniProt P46663).
T1 construct: expressed in transfected cells; host or cells: CHO K1 cells (Chinese hamster ovary), stably transfected
T1 sequence (P46663 1-353): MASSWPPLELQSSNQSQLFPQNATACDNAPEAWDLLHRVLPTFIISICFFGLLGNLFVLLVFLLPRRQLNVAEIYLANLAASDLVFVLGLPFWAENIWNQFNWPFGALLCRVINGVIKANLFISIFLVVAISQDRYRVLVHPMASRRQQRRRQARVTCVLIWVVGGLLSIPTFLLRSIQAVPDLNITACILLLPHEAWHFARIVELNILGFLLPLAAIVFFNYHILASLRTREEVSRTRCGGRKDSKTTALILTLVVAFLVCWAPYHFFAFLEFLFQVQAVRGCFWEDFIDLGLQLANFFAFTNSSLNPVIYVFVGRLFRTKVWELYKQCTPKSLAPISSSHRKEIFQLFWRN
Put plainly: Functional study on the bradykinin receptor 1 (B1R), Ca2+ fluorescence (Fluo-4) FLIPR/Novostar assay, hB1R cells. The following applies: CHO-K1, read-out: % Inhibition (h-B1R) at 10 μM. The format is cell-based. The method, boiled down:
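Ca2+ influx (Fluo-4, peak fluorescence, λex 488/λem 540 nm) was measured in CHO K1 lines expressing rat or human B1R. After a 10 μM test-compound pre-addition scoring % activation, cells received EC80 agonist: Des-Arg9-bradykinin for rat, Lys-Des-Arg9-bradykinin for human. Antagonism was expressed as % of maximum inhibition, with IC50 from varied concentrations.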
As to `Cc1cc(N2CCC(N(C)C(=O)c3ccc4c(c3)C(NS(=O)(=O)Cc3ccccc3C(F)(F)F)CC4)CC2)cc(C)n1` (stereo not drawn) [CC_H-121, N-[1-(2,6-Dimethyl-pyridin-4-yl)-piperidin-4-yl]-N-methyl-3-[[[2-(trifluoromethyl)-phenyl]-methylsulfonyl]amino]-2,3-dihydro-1H-indene-5-carboxylic acid amide], the inhibition (usually the percentage by which the read-out fell short of the control) at 10 µM worked out at 100%.
Still for that read-out and setting: the value for `Cc1cc(N2CCC(N(C)C(=O)c3ccc4c(c3)C(NC(=O)c3cncnc3)CC4)CC2)cc(C)n1` (stereo not drawn) [CC_H-118, N-[6-[[1-(2,6-Dimethyl-pyridin-4-yl)-piperidin-4-yl]-methyl-carbamoyl]-2,3-dihydro-1H-inden-1-yl]-pyrimidine-5-carboxylic acid amide] was 89%; that for `Cc1cccc(C)c1C(=O)NC1CCc2ccc(C(=O)N(C)C3CCN(c4ccc5cnccc5c4)CC3)cc21` (stereo not drawn) [CC_H-133, 3-[(2,6-Dimethyl-benzoyl)amino]-N-(1-isoquinolin-6-yl-piperidin-4-yl)-N-methyl-2,3-dihydro-1H-indene-5-carboxylic acid amide] was 90%.
On the same count and under the same terms, for `Cc1cccc(C)c1C(=O)NC1CCOc2ccc(C(=O)N(C)C3CCN(c4ccncc4)CC3)cc21` (stereo not drawn) [CC_H-71, 4-[(2,6-Dimethyl-benzoyl)amino]-N-methyl-N-(1-pyridin-4-yl-piperidin-4-yl)-3,4-dihydro-2H-chromene-6-carboxylic acid amide] the value was 84%; for `O=C(NCCC1CCN(c2ccncc2)CC1)c1ccc2c(c1)C(NC(=O)c1c(Cl)cccc1C(F)(F)F)CC2` (stereo not drawn) [CC_H-136, 3-[[2-Chloro-6-(trifluoromethyl)-benzoyl]amino]-N-[2-(1-pyridin-4-yl-piperidin-4-yl)-ethyl]-2,3-dihydro-1H-indene-5-carboxylic acid amide], 100%; for `Cc1cc(N2CCC(N(C)C(=O)c3ccc4c(c3)C(N(C)S(=O)(=O)c3c(Cl)cccc3C(F)(F)F)CC4)CC2)cc(C)n1` (stereo not drawn) [CC_H-134, 3-[[[2-Chloro-6-(trifluoromethyl)-phenyl]sulfonyl]-methyl-amino]-N-[1-(2,6-dimethyl-pyridin-4-yl)-piperidin-4-yl]-N-methyl-2,3-dihydro-1H-indene-5-carboxylic acid amide], 100%.
Consider `CN(C(=O)c1ccc2c(c1)C(NC(=O)CCC1CCCC1)CC2)C1CCN(c2ccc3cnccc3c2)CC1` (stereo not drawn) [CC_H-78, 3-(3-Cyclopentyl-propanoylamino)-N-(1-isoquinolin-6-yl-piperidin-4-yl)-N-methyl-2,3-dihydro-1H-indene-5-carboxylic acid amide], for which the inhibition at 10 µM came out at 100%.
Same read-out and setting: for `CC(C)CC(=O)NC1CCc2ccc(C(=O)NCCC3CCN(c4ccncc4)CC3)cc21` (stereo not drawn) [CC_H-132, 3-(3-Methyl-butanoylamino)-N-[2-(1-pyridin-4-yl-piperidin-4-yl)-ethyl]-2,3-dihydro-1H-indene-5-carboxylic acid amide] the value was 99%.
Still for that read-out and setting: for `CN(C(=O)NC1CCc2cc(C(=O)N(C)C3CCN(c4ccncc4)CC3)ccc21)c1ccccc1Cl` (stereo not drawn) [CC_H-126, 1-[[(2-Chlorophenyl)-methyl-carbamoyl]amino]-N-methyl-N-(1-pyridin-4-yl-piperidin-4-yl)-2,3-dihydro-1H-indene-5-carboxylic acid amide] the value was 100%; for `CN(C(=O)c1ccc2c(c1)C(NS(=O)(=O)Cc1ccccc1C(F)(F)F)CC2)C1CCN(c2ccncc2)CC1` (stereo not drawn) [CC_H-141, N-Methyl-N-(1-pyridin-4-yl-piperidin-4-yl)-3-[[[2-(trifluoromethyl)-phenyl]-methylsulfonyl]amino]-2,3-dihydro-1H-indene-5-carboxylic acid amide], 100%.
With `CN(C(=O)c1ccc2c(c1)C(NC(=O)c1sccc1Cl)CC2)C1CCN(c2ccc3cnccc3c2)CC1` (stereo not drawn) [CC_H-80, 3-Chloro-N-[6-[(1-isoquinolin-6-yl-piperidin-4-yl)-methyl-carbamoyl]-2,3-dihydro-1H-inden-1-yl]-thiophene-2-carboxylic acid amide], the inhibition at 10 µM amounted to 98%.
On the same count and under the same terms, for `Cc1cc(N2CCC(N(C)C(=O)c3ccc4c(c3)C(NC(=O)c3sccc3Cl)CC4)CC2)cc(C)n1` (stereo not drawn) [CC_H-109, 3-Chloro-N-[6-[[1-(2,6-dimethyl-pyridin-4-yl)-piperidin-4-yl]-methyl-carbamoyl]-2,3-dihydro-1H-inden-1-yl]-thiophene-2-carboxylic acid amide] the value was 100%.
Still for that read-out and setting: for `CN(C(=O)c1ccc2c(c1)C(NC(=O)C(C)(C)c1ccccc1Cl)CCC2)C1CCN(c2ccncc2)CC1` (stereo not drawn) [CC_H-102, 8-[[2-(2-Chlorophenyl)-2-methyl-propanoyl]amino]-N-methyl-N-(1-pyridin-4-yl-piperidin-4-yl)-5,6,7,8-tetrahydro-naphthalene-2-carboxylic acid amide] the value was 99%; for `Cc1cc(N2CCC(N(C)C(=O)c3ccc4c(c3)C(NC(=O)N(C)c3ccccc3Cl)CC4)CC2)cc(C)n1` (stereo not drawn) [CC_H-142, 3-[[(2-Chlorophenyl)-methyl-carbamoyl]amino]-N-[1-(2,6-dimethyl-pyridin-4-yl)-piperidin-4-yl]-N-methyl-2,3-dihydro-1H-indene-5-carboxylic acid amide], 100%.
Same read-out and setting: for `Cc1cccc(C)c1C(=O)NC1CCc2ccc(C(=O)N(C)C3CCN(c4ccncc4)CC3)cc21` (stereo not drawn) [CC_H-138, 3-[(2,6-Dimethyl-benzoyl)amino]-N-methyl-N-(1-pyridin-4-yl-piperidin-4-yl)-2,3-dihydro-1H-indene-5-carboxylic acid amide] the value was 98%.
On to `CN(C(=O)c1ccc2c(c1)C(NC(=O)c1cc(F)ccc1Cl)CC2)C1CCN(c2ccc3cnccc3c2)CC1` (stereo not drawn) [CC_H-76, 3-[(2-Chloro-5-fluoro-benzoyl)amino]-N-(1-isoquinolin-6-yl-piperidin-4-yl)-N-methyl-2,3-dihydro-1H-indene-5-carboxylic acid amide], for which the inhibition at 10 µM was determined as 100%.
For the molecule `CN(C(=O)c1ccc2c(c1)CCC2NC(=O)C(C)(C)c1ccccc1Cl)C1CCN(c2ccncc2)CC1` (stereo not drawn) [CC_H-100, 1-[[2-(2-Chlorophenyl)-2-methyl-propanoyl]amino]-N-methyl-N-(1-pyridin-4-yl-piperidin-4-yl)-2,3-dihydro-1H-indene-5-carboxylic acid amide], the inhibition at 10 µM turned out to be 77%.

The experiment is the same for the next values; noted with them: CHO-K1, read-out: % inhibition (human B1R) at 10 μM.
As for `CN(C)c1nccc(N2CCC(N(C)C(=O)c3ccc4c(c3)[C@H](NC(=O)C3CCCC3)CC4)CC2)n1` [Example H-228, (3R)-3-(Cyclopentanecarbonylamino)-N-[1-(2-dimethylamino-pyrimidin-4-yl)-piperidin-4-yl]-N-methyl-2,3-dihydro-1H-indene-5-carboxylic acid amide], the inhibition at 10 µM amounted to 96%.
Same read-out and setting: for `CCN(C(=O)c1cccnc1C(F)(F)F)[C@@H]1CCc2ccc(C(=O)N(C)C3CCN(c4cc(C)nc(C)n4)CC3)cc21` [Example H-174, N-[(1R)-6-[[1-(2,6-Dimethyl-pyrimidin-4-yl)-piperidin-4-yl]-methyl-carbamoyl]-2,3-dihydro-1H-inden-1-yl]-N-ethyl-2-(trifluoromethyl)-pyridine-3-carboxylic acid amide] the value was 100%; for `CCN(C(=O)c1cc(F)ccc1Cl)[C@@H]1CCc2ccc(C(=O)N(C)C3CCN(c4ccncc4)CC3)cc21` [Example H-221, (3R)-3-[(2-Chloro-5-fluoro-benzoyl)-ethyl-amino]-N-methyl-N-(1-pyridin-4-yl-pipendin-4-yl)-2,3-dihydro-1H-indene-5-carboxylic acid amide], 99%.
Still for that read-out and setting: for `Cc1cc(N2CCC(N(C)C(=O)c3ccc4c(c3)[C@H](NC(=O)CC(C)C(C)C)CC4)CC2)ccn1` (stereo partly drawn) [Example H-222, (3R)-3-(3,4-Dimethyl-pentanoylamino)-N-methyl-N-[1-(2-methyl-pyridin-4-yl)-piperidin-4-yl]-2,3-dihydro-1H-indene-5-carboxylic acid amide] the value was 99%.
On the same count and under the same terms, the value for `CCN(C(=O)c1cccc(F)c1Cl)[C@@H]1CCc2ccc(C(=O)N(C)C3CCN(c4cc(C)nc(C)n4)CC3)cc21` [Example H-197, (3R)-3-[(2-Chloro-3-fluoro-benzoyl)-ethyl-amino]-N-[1-(2,6-dimethyl-pyrimidin-4-yl)-piperidin-4-yl]-N-meihyl-2,3-dihydro-1H-indene-5-carboxylic acid amide] was 100%; that for `Cc1cc(N2CCC(N(C)C(=O)c3ccc4c(c3)[C@H](NC(=O)CC(C)C(C)C)CC4)CC2)nc(C)n1` (stereo partly drawn) [Example H-223, (3R)-3-(3,4-Dimethyl-pentanoylamino)-N-[1-(2,6-dimethyl-pyrimidin-4-yl)-piperidin-4-y]-N-methyl-2,3-dihydro-1H-indene-5-carboxylic acid amide] was 96%.
For `CCN(C(=O)c1cc(F)ccc1Cl)[C@@H]1CCc2ccc(C(=O)N(C)C3CCN(c4cc(C)nc(C)n4)CC3)cc21` [Example H-211, (3R)-3-[(2-Chloro-5-fluoro-benzoyl)-ethyl-amino]-N-[1-(2,6-dimethyl-pyrimidin-4-yl)-piperidin-4-yl]-N-meihyl-2,3-dihydro-1H-indene-5-carboxylic acid amide], the inhibition at 10 µM is 99%.
